# Like-named read-outs stand apart in the source and are kept apart here. No end group written: not given here.
# Experiments:
# [1] = Rat pharmacokinetic studies, IV, fluorescence HPLC of plasma; format: in vivo, CD rats; conditions: for half-life relative to core peptide T786 / half-life relative to core peptide T1476: CD rats
# Experimental: 250-300 g male CD rats, double jugular catheter, obtained from Charles River Laboratories were used. Peptides were injected in one jugular catheter in a volume of 200 μl of peptide solution (approximately 3.75 mg/ml), dosing solution concentration was determined using the Edelhoch method, (Edelhoch, 1967, Biochemistry 6:1948-1954) method and adjusted based on animal weight such that each animal received a dose of 2.5 mg/kg). Approximately 250-300 μl of blood was removed at predetermined time intervals (0, 15, 30 min and 1, 2, 4, 6, and 8 hours) and added to EDTA capiject tubes. Plasma was removed from pelleted cells upon centrifugation and either frozen or immediately processed for fluorescence HPLC analysis.
# 100 μl of sample plasma was added to 900 μl of precipitation buffer (acetonitrile, 1.0% TFA, detergent) resulting in precipitation of the majority of plasma proteins. Following centrifugation at 10,000 rpm for 10 min, 400 μl of the supernatant was removed and added to 600 μl of HPLC grade water. Serial dilutions were performed as dictated by concentration of peptide present in each sample in dilution buffer comprised of 40% precipitation buffer and 60% HPLC water. In addition to sample dilutions, serial dilutions of dosing solution were performed in buffer as well as in plasma and used to generate a standard curve relating peak area to known concentration of peptide. This curve was then used to calculate concentration of peptide in plasma taking into account all dilutions performed and quantity injected onto column.
# [2] = system: RSV; assay: Respiratory syncytial virus plaque reduction assay (Hep2 cells); format: cell-based
# Experimental: All necessary dilutions of peptides were performed in clean, sterile 96-well TC plate. A total of eleven dilutions for each peptide and one control well containing no peptide were assembled. The final concentration range of peptide started at 50 μg/ml or 100 μg/ml, with a total of eleven two-fold dilutions. The RSV was prepared at a concentration of 100PFU/well in 100 μl 3% EMEM, as determined by a known titer of RSV. The virus is then added to all of the wells.
# The media was removed from one sub-confluent 96-well plate of Hep2 cells. The material from the dilution plate was transferred onto the cell plates starting with row 1 and then transferring row 12, row 11, etc. until all rows were transferred. Plates were placed back into the incubator for 48 hours.
# The cells were checked to ensure that syncytia were present in the control wells. Media was removed and approximately 50 μls of 0.25% Crystal Violet in methanol was added to each well. The wells were rinsed immediately in water to remove excess stain and allowed to dry. Using a dissecting microscope, the number of syncytia in each well was counted.
# [3] = system: SIV isolate B670; assay: Magi-CCR-5 infectivity assay; format: cell-based
# [4] = system: HIV-2 NIHZ; assay: virus mediated cell-cell fusion assay (chronically infected CEM cells mixed with uninfected Molt-4 cells); format: cell-based
# [5] = system: HIV-1
# [6] = system: HIV-1 9320; assay: In vivo HuPBMC-SCID mouse model of HIV-1 9320 infection; design: species or system SCID mice; conditions: 67 mg/kg total daily dose, IP, bid, 8 days
# Experimental: Female SCID mice (5-7 weeks old) received 5-10×10^7 adult human PBMC injected intraperitoneally. Two weeks after reconstitution, mice were infected IP on day 0 with 10^3 TCID50 HIV-1 9320 (AZT-sensitive isolate A018). Treatment with peptides was IP, bid, beginning day −1 and continuing through day 6. The extent of infection in blood cells, splenocytes, lymph nodes, and peritoneal cells was assayed by quantitative co-culture with human PBMC blasts weekly for three consecutive weeks following animal exsanguinations and tissue harvest (day 7, approximately 12-18 hours following the last drug treatment). Co-culture supernatants were evaluated for HIV-1 p24 antigen production as a measure of virus infection (Immunotek Coulter kits and protocol).
# Two weeks after reconstitution with HuPBMCs, mice were infected IP on day 0 with 10^3 TCID50 HIV-1 9320 passed in PBMCs (AZT-sensitive isolate A018). […] The extent of infection in blood cells, splenocytes, lymph nodes, and peritoneal cells was assayed by quantitative co-culture with human PBMC blasts weekly for three consecutive weeks following animal exsanguinations and tissue harvest (day 7, approx. 12 to 18 hours following last drug treatment). Co-culture supernatants were evaluated for HIV-1 p24 antigen production as a measure of virus infection.
# [7] = system: HIV-1; assay: Human PBMC infectivity/neutralization assay; format: cell-based
# Experimental: The prototypic assay used cell lines where the primary isolate assay utilizes PBMC, obtained through Interstate Blood Bank, activated for 2-3 days with a combination of OKT3 (0.5 μg/ml) and CD28 antibodies (0.1 μg/ml). The target cells were banded on lymphocyte separation medium (LSM), washed, and frozen. Cells were thawed as required and activated as indicated above a minimum of 2-3 days prior to assay. In this 96-well format assay, cells were at a concentration of 2×10^6/ml in 5% IL-2 medium and a final volume of 100 μl. Peptide stock solutions were made in DPBS (1 mg/ml). Peptide dilutions were performed in 20% FBS RPM1 1640/5% IL-2 complete medium.
# [8] = system: HIV-1; remark: listed apart in the source
# [9] = FIG.5; conditions: for half-life: CD, rat, plasma, iv, read-out: T1/2β (converted)
# Text: Table printed on a drawing sheet, FIG.5
# The patent's description of the figure: FIG. 5.
# First reader's note: The table is printed under a plasma concentration-time plot of the same two peptides, which is not copied.
# [10] = biological target: M41Δ178 (a truncated gp41 ectodomain fusion protein lacking the T20 amino acid sequence)
# [11] = biological target: M41Δ178 (a truncated gp41 ectodomain fusion protein lacking the T20 amino acid sequence); remark: listed apart in the source
molecule,measurement,setting,value
"Ac-WQEWDEYDASISQVNEKINQALAYIREADELWAWF-NH2 [T1301, Ac-WQEWDEYDASISQVNEKINOALAYIREADELWA WF-NH2]",half-life relative to core peptide T786,[1],greatly enhanced half-life
same,half-life relative to core peptide T1476,[1],greatly enhanced half-life
same,ability to inhibit RSV infection (plaque formation of HEp2 cells),[2],inhibit RSV infection
Ac-WQAWDEYDASISQVNEKINQALAYIREADELWAWF-NH2 [T1302],half-life relative to core peptide T786,[1],greatly enhanced half-life
same,half-life relative to core peptide T1476,[1],greatly enhanced half-life
same,ability to inhibit RSV infection (plaque formation of HEp2 cells),[2],inhibit RSV infection
enfuvirtide [listing 1 of 2 here],EC-50,[3],2313
same,Vn/Vo = 0.1,[3],>10000
same,fusion inhibition,[4],3610.0 ng/mL
same,EC-50,[5]; HIV-1 9320,11
same,Vn/Vo = 0.1,[5]; HIV-1 9320,50
same,EC-50,"[5]; HIV-1 301714 (subtype B, NSI)",1065
same,Vn/Vo = 0.1,"[5]; HIV-1 301714 (subtype B, NSI)",4000
same,EC-50,[5]; HIV-1 G691-2 (AZT-R),13
same,Vn/Vo = 0.1,[5]; HIV-1 G691-2 (AZT-R),200
same,EC-50,[5]; HIV-1 IIIB,42
same,Vn/Vo = 0.1,[5]; HIV-1 IIIB,80
same,EC-50,[5]; HIV-1 pNL4-3,166
same,Vn/Vo = 0.1,[5]; HIV-1 pNL4-3,210
same,EC-50,[5]; HIV-1 pNL4-3 SM (T20-R),90
same,Vn/Vo = 0.1,[5]; HIV-1 pNL4-3 SM (T20-R),900
same,EC-50,[5]; HIV-1 pNL4-3 SM (T20-R) Duke,410
same,Vn/Vo = 0.1,[5]; HIV-1 pNL4-3 SM (T20-R) Duke,2600
same,EC-50,[5]; HIV-1 pNL4-3 STM (T20/T649-R),>50000
same,Vn/Vo = 0.1,[5]; HIV-1 pNL4-3 STM (T20/T649-R),>50000
same,infectious virus in blood or lymph tissues,[6],not detectable
same,virus in peritoneal washes and spleen preparation,[6],detected
same,Vn/Vo = 0.1,[7]; HIV-1 9320,6000 ng/mL
same,Vn/Vo = 0.1,"[7]; HIV-1 301593 (subtype B, SI)",3500 ng/mL
same,Vn/Vo = 0.1,"[7]; HIV-1 301714 (subtype B, NSI)",8000 ng/mL
same,Vn/Vo = 0.1,"[7]; HIV-1 302056 (subtype B, NSI)",800 ng/mL
same,Vn/Vo = 0.1,[7]; HIV-1 302077 (subtype A),3300 ng/mL
same,Vn/Vo = 0.1,[7]; HIV-1 302143 (SI),1600 ng/mL
same,Vn/Vo = 0.1,[7]; HIV-1 G691-2 (AZT-R),1300 ng/mL
same,Vn/Vo = 0.1,"[7]; HIV-1 IIIB, dose required to reduce virus titer by one log",250 ng/mL
same,Vn/Vo = 0.1,[7]; HIV-1 pNL4-3,3500 ng/mL
same,Vn/Vo = 0.1,[7]; HIV-1 pNL4-3 SM (T20-R),>10000 ng/mL
same,fusion inhibition,[8]; HIV-1 9320,118.4 ng/mL
same,fusion inhibition,[8]; HIV-1 G691-2 (AZT-R),406.0 ng/mL
same,fusion inhibition,[8]; HIV-1 G762-3 (Pre-AZT),340.1 ng/mL
same,fusion inhibition,[8]; HIV-1 IIIB,2.5 ng/mL
same,fusion inhibition,[8]; HIV-1 MN,20.0 ng/mL
same,fusion inhibition,[8]; HIV-1 RF,6.1 ng/mL
same,fusion inhibition,[8]; HIV-1 pNL4-3 SM (T20 Resistant),405.3 ng/mL
enfuvirtide [listing 2 of 2 here],half-life,[9],96 min
Ac-WQEWEQKIQHWSYGLRPGWASLWEWF-NH2 [T1324],half-life compared to the T1323 core peptide,[1]; CD male rats,significantly increased half-life
WMEWDREINKYTSLIHSLIEESQNQQEKNEQELL [DP397],inhibition of HIV-1 infection compared to T1249,"[5]; DH012-649 strain, at higher concentrations",increased inhibition of HIV-1 infection
same,inhibition of HIV-1 infection compared to T1249,[5]; RF-649 strain,increased inhibition of HIV-1 infection
same,inhibition of HIV-1 infection compared to T649,"[5]; T649 resistant strains RF-649, DH012-649, 3′ETVQQQ, SIM-649",markedly increased inhibition of HIV-1 infection
CC[C@H](C)[C@H](NC(=O)[C@H](CCC(N)=O)NC(=O)[C@H](C)NC(=O)[C@H](CCC(N)=O)NC(=O)[C@H](CCC(=O)O)NC(=O)[C@H](CC(C)C)NC(=O)[C@H](CC(C)C)NC(=O)[C@H](C)NC(=O)[C@@H](NC(=O)[C@@H](NC(=O)[C@H](CCCCN)NC(=O)[C@H](CCC(N)=O)NC(=O)[C@H](CCC(=O)O)NC(=O)[C@H](Cc1c[nH]c2ccccc12)NC(=O)[C@H](CCC(=O)O)NC(=O)[C@H](CCC(N)=O)NC(=O)[C@H](Cc1c[nH]c2ccccc12)NC(C)=O)[C@@H](C)CC)[C@@H](C)O)C(=O)N[C@@H](CCC(N)=O)C(=O)N[C@@H](CCC(N)=O)C(=O)N[C@@H](CCC(=O)O)C(=O)N[C@@H](CCCCN)C(=O)N[C@@H](CC(N)=O)C(=O)N[C@@H](CCC(=O)O)C(=O)N[C@@H](Cc1ccc(O)cc1)C(=O)N[C@@H](CCC(=O)O)C(=O)N[C@@H](CC(C)C)C(=O)N[C@@H](CCC(N)=O)C(=O)N[C@@H](CCCCN)C(=O)N[C@@H](CC(C)C)C(=O)N[C@@H](CC(=O)O)C(=O)N[C@@H](CCCCN)C(=O)N[C@@H](Cc1c[nH]c2ccccc12)C(=O)N[C@@H](C)C(=O)N[C@@H](CO)C(=O)N[C@@H](CC(C)C)C(=O)N[C@@H](Cc1c[nH]c2ccccc12)C(=O)N[C@@H](CCC(=O)O)C(=O)N[C@@H](Cc1c[nH]c2ccccc12)C(=O)N[C@@H](Cc1ccccc1)C(N)=O [T1249A1],AUC[0-8],[9],71.43 µg/h/mL
same,half-life,[9],283 min
T20 (peptide),Kd,[10],1 to 2 nM
"Ac-WQAWDEYDASISDVNEKINQALAYIREADELWEWF-NH2 [T1303, RSV hybrid polypeptide]",half-life relative to core peptide T1476,[1],greatly enhanced half-life
same,ability to inhibit RSV infection (plaque formation of HEp2 cells),[2],inhibit RSV infection
"Ac-VYPSDEYDASISQVNEEINQALAYIRKADELLENV-NH2 [T786, RSV core peptide]",ability to inhibit RSV infection (plaque formation of HEp2 cells),[2],able to inhibit RSV infection
"WQEWEQKITALLEQAQIQQEKNEYELQKLDKWASLWEWF (not fully specified (N-terminus, C-terminus)) [T1249 (Ac-[…]-NH2)]",Kd,[11],1 to 2 nM

# — US6656906B1, “Hybrid polypeptides with enhanced pharmacokinetic properties” (Trimeris, Inc., priority 1998, dated 2003)
